{"source": "paper PMC5601486", "about": "“Identification of 4-phenylquinolin-2(1H)-one as a specific allosteric inhibitor of Akt” (Scientific Reports, 2017)", "key": {"[1]": {"test_system": "NLK", "experiment": "KINOMEscan", "settings": "50000 nM", "procedure": "KINOMEscan™ selectivity screen\n(§1) The assay was perfor med at DiscoveRx Corporation according the methods published previously5. Briefly, Kinase-tagged T7 phage strains were grown in parallel in an E. coli host derived from the BL21 strain. E. coli were grown to log-phase and infected with T7 phage from a frozen stock and incubated with shaking at 32°C until lysis (90-150 minutes). The kinases were produced in HEK-293 cells and subsequently tagged with DNA for qPCR detection. Streptavidin-coated magnetic beads were treated with biotinylated small molecule ligands to generate affinity resins for kinase\n(§2) inhibitor or DMSO control was performed in polypropylene 384-well plates for 1 hr at room temperature. After wash with PBS buffer containing 0.05% Tween 20, the beads were incubated in elution buffer (PBS containing 0.05 % Tween 20 and 0.5 μM non-biotinylated affinity ligand) for 30 minutes at room temperature. The kinase concentration in the eluates was measured by qPCR."}, "[2]": {"test_system": "OSR1", "experiment": "KINOMEscan", "settings": "50000 nM", "procedure": "KINOMEscan™ selectivity screen\n(§3) Briefly, Kinase-tagged T7 phage strains were grown in parallel in an E. coli host derived from the BL21 strain. E. coli were grown to log-phase and infected with T7 phage from a frozen stock and incubated with shaking at 32°C until lysis (90-150 minutes). The kinases were produced in HEK-293 cells and subsequently tagged with DNA for qPCR detection. Streptavidin-coated magnetic beads were treated with biotinylated small molecule ligands to generate affinity resins for kinase\nas §2"}, "[3]": {"test_system": "BRSK1", "experiment": "KINOMEscan", "settings": "50000 nM", "procedure": "KINOMEscan™ selectivity screen\nas §1, §2"}, "[4]": {"test_system": "Akt S473 phosphorylation", "experiment": "Western blot analysis of S473 phosphorylation", "format": "cell-based", "settings": "Mus musculus, N2a, 0.5 h; Neuro 2A cells, IGF stimulation 30 min; read-out: IC50 of IGF-induced S473 phosphorylation", "protocol": "Neuro 2A cells were seeded in 12-well plates in DMEM containing 5% FBS for 24 hr.\nAfter overnight serum starvation (in 0% FBS DMEM), cells were incubated for 30 min at 37 °C with G7 or LY294002 or Torin 1 (Sigma Aldrich) at various concentrations, or DMSO control. IGF-1 was added to each well at a final concentration of 100 ng/mL. After 30-min incubation cells were washed with cold PBS and lysed with 50 µL lysis buffer containing 1% Triton X-100 and protease/phosphatase inhibitors (Cell Signaling Technology) or RIPA buffer (Santa Cruz Biotech). Samples were electrophoresed in 4–12% Bis-Tris gels (Life Technologies) at 150 V using MOPS SDS running buffer. Proteins were transferred electrophoretically to a PVDF or nitrocellulose membrane. For detection of cleaved […]\ncaspase 3 a Trans-Blot Turbo Transfer System (Bio-Rad, 25 V for 25 min) with PVDF membrane were used. […]\nanti- GAPDH (14C10) antibody (#2118) (all antibodies were from Cell Signaling Technology unless indicated, 1:1000 dilution was used) at 4°C overnight, washed three times with TBS-T, then incubated with peroxidase-conjugated secondary antibody (Sigma-Aldrich) for 1 hr at room temperature. […] Band intensity was quantitated using Kodak 1D imaging analysis software. […]"}, "[5]": {"test_system": "MAP3K2", "experiment": "KINOMEscan", "settings": "50000 nM", "procedure": "KINOMEscan™ selectivity screen\nas §1, §2"}, "[6]": {"test_system": "EGFR(E746-A750del)", "experiment": "KINOMEscan", "settings": "50000 nM", "procedure": "KINOMEscan™ selectivity screen\nas §3, §2"}, "[7]": {"test_system": "EGFR(T790M)", "experiment": "KINOMEscan", "settings": "50000 nM", "procedure": "KINOMEscan™ selectivity screen\nas §1, §2"}, "[8]": {"test_system": "TNK1", "experiment": "KINOMEscan", "settings": "50000 nM", "procedure": "KINOMEscan™ selectivity screen\nas §1, §2"}, "[9]": {"test_system": "PRKCQ", "experiment": "KINOMEscan", "settings": "50000 nM", "procedure": "KINOMEscan™ selectivity screen\nas §1, §2"}, "[10]": {"test_system": "over 380 human kinases", "experiment": "KINOMEscan selectivity screen (whole panel)", "settings": "50000 nM; 403 non-mutant kinases", "procedure": "KINOMEscan™ selectivity screen\nas §1, §2"}, "[11]": {"test_system": "ERK3", "experiment": "KINOMEscan", "settings": "50000 nM", "procedure": "KINOMEscan™ selectivity screen\nas §3, §2"}, "[12]": {"test_system": "AKT1", "experiment": "KINOMEscan", "settings": "50000 nM", "procedure": "KINOMEscan™ selectivity screen\nas §1, §2"}, "[13]": {"test_system": "MAP3K4", "experiment": "KINOMEscan", "settings": "50000 nM", "procedure": "KINOMEscan™ selectivity screen\nas §1, §2"}, "[14]": {"test_system": "T1, PFCDPK1(P.falciparum)", "T1 construct": "purchased DiscoveRx KINOMEscan", "experiment": "KINOMEscan", "format": "binding", "settings": "50000 nM"}, "[15]": {"test_system": "p38-gamma", "experiment": "KINOMEscan", "settings": "50000 nM", "procedure": "KINOMEscan™ selectivity screen\nas §3, §2"}, "[16]": {"test_system": "SGK", "experiment": "KINOMEscan", "settings": "50000 nM", "procedure": "KINOMEscan™ selectivity screen\nas §1, §2"}, "[17]": {"test_system": "FGFR3(G697C)", "experiment": "KINOMEscan", "settings": "50000 nM", "procedure": "KINOMEscan™ selectivity screen\nas §1, §2"}, "[18]": {"test_system": "PIK3CA(E545A)", "experiment": "KINOMEscan", "settings": "50000 nM", "procedure": "KINOMEscan™ selectivity screen\nas §3, §2"}, "[19]": {"test_system": "EPHA4", "experiment": "KINOMEscan", "settings": "50000 nM", "procedure": "KINOMEscan™ selectivity screen\nas §3, §2"}, "[20]": {"test_system": "FLT3", "experiment": "KINOMEscan", "settings": "50000 nM", "procedure": "KINOMEscan™ selectivity screen\nas §1, §2"}, "[21]": {"test_system": "GRK1", "experiment": "KINOMEscan", "settings": "50000 nM", "procedure": "KINOMEscan™ selectivity screen\nas §1, §2"}, "[22]": {"test_system": "PLK1", "experiment": "KINOMEscan", "settings": "50000 nM", "procedure": "KINOMEscan™ selectivity screen\nas §1, §2"}, "[23]": {"test_system": "FES", "experiment": "KINOMEscan", "settings": "50000 nM", "procedure": "KINOMEscan™ selectivity screen\nas §3, §2"}, "[24]": {"test_system": "MAPKAPK2", "experiment": "KINOMEscan", "settings": "50000 nM", "procedure": "KINOMEscan™ selectivity screen\nas §1, §2"}, "[25]": {"test_system": "FGFR4", "experiment": "KINOMEscan", "settings": "50000 nM", "procedure": "KINOMEscan™ selectivity screen\nThe assay was perfor med at DiscoveRx Corporation according the methods published previously5. […] The kinases were produced in HEK-293 cells and subsequently tagged with DNA for qPCR detection. Streptavidin-coated magnetic beads were treated with biotinylated small molecule ligands to generate affinity resins for kinase\nas §2"}, "[26]": {"test_system": "IRAK4", "experiment": "KINOMEscan", "settings": "50000 nM", "procedure": "KINOMEscan™ selectivity screen\nas §3, §2"}, "[27]": {"test_system": "EPHA7", "experiment": "KINOMEscan", "settings": "50000 nM", "procedure": "KINOMEscan™ selectivity screen\nas §1, §2"}, "[28]": {"test_system": "MAP4K2", "experiment": "KINOMEscan", "settings": "50000 nM", "procedure": "KINOMEscan™ selectivity screen\nas §1, §2"}, "[29]": {"test_system": "CLK1", "experiment": "KINOMEscan", "settings": "50000 nM", "procedure": "KINOMEscan™ selectivity screen\nas §3, §2"}, "[30]": {"test_system": "CDK9", "experiment": "KINOMEscan", "settings": "50000 nM", "procedure": "KINOMEscan™ selectivity screen\nas §3, §2"}, "[31]": {"test_system": "TXK", "experiment": "KINOMEscan", "settings": "50000 nM", "procedure": "KINOMEscan™ selectivity screen\nas §1, §2"}, "[32]": {"test_system": "FLT3(ITD,F691L)", "experiment": "KINOMEscan", "settings": "50000 nM", "procedure": "KINOMEscan™ selectivity screen\nas §1, §2"}, "[33]": {"test_system": "MAP3K3", "experiment": "KINOMEscan", "settings": "50000 nM", "procedure": "KINOMEscan™ selectivity screen\nas §3, §2"}, "[34]": {"test_system": "CDK4-cyclinD3", "experiment": "KINOMEscan", "settings": "50000 nM", "procedure": "KINOMEscan™ selectivity screen\nas §3, §2"}, "[35]": {"test_system": "ABL1(T315I)-nonphosphorylated", "experiment": "KINOMEscan", "settings": "50000 nM", "procedure": "KINOMEscan™ selectivity screen\nas §3, §2"}, "[36]": {"test_system": "PIK3CA(I800L)", "experiment": "KINOMEscan", "settings": "50000 nM", "procedure": "KINOMEscan™ selectivity screen\nas §1, §2"}}}
{"smiles": "Oc1cc(-c2ccccc2)c2ccccc2n1", "note": "[G7, 4-phenylquinolin-2(1H)-one]", "values": [{"measurement": "Percent Control", "setting": "[1]", "value": 82, "unit": "%"}, {"measurement": "Percent Control", "setting": "[2]", "value": 87, "unit": "%"}, {"measurement": "Percent Control", "setting": "[3]", "value": 72, "unit": "%"}, {"measurement": "IC50", "setting": "[4]", "value": 18, "unit": "µM"}, {"measurement": "Percent Control", "setting": "[5]", "value": 63, "unit": "%"}, {"measurement": "Percent Control", "setting": "[6]", "value": 70, "unit": "%"}, {"measurement": "Percent Control", "setting": "[7]", "value": 100, "unit": "%"}, {"measurement": "Percent Control", "setting": "[8]", "value": 100, "unit": "%"}, {"measurement": "Percent Control", "setting": "[9]", "value": 81, "unit": "%"}, {"measurement": "Number of Hits S(1)", "setting": "[10]", "value": 0}, {"measurement": "Number of Hits S(10)", "setting": "[10]", "value": 2}, {"measurement": "Number of Hits S(35)", "setting": "[10]", "value": 14}, {"measurement": "Selectivity Score S(10)", "setting": "[10]", "value": 0.005}, {"measurement": "Selectivity Score S(35)", "setting": "[10]", "value": 0.035}, {"measurement": "Percent Control", "setting": "[11]", "value": 92, "unit": "%"}, {"measurement": "Percent Control", "setting": "[12]", "value": 100, "unit": "%"}, {"measurement": "Percent Control", "setting": "[13]", "value": 100, "unit": "%"}, {"measurement": "Percent Control", "setting": "[14]", "value": 83, "unit": "%"}, {"measurement": "Percent Control", "setting": "[15]", "value": 100, "unit": "%"}, {"measurement": "Percent Control", "setting": "[16]", "value": 66, "unit": "%"}, {"measurement": "Percent Control", "setting": "[17]", "value": 98, "unit": "%"}, {"measurement": "Percent Control", "setting": "[18]", "value": 100, "unit": "%"}, {"measurement": "Percent Control", "setting": "[19]", "value": 93, "unit": "%"}, {"measurement": "Percent Control", "setting": "[20]", "value": 13, "unit": "%"}, {"measurement": "Percent Control", "setting": "[21]", "value": 75, "unit": "%"}, {"measurement": "Percent Control", "setting": "[22]", "value": 100, "unit": "%"}, {"measurement": "Percent Control", "setting": "[23]", "value": 92, "unit": "%"}, {"measurement": "Percent Control", "setting": "[24]", "value": 100, "unit": "%"}, {"measurement": "Percent Control", "setting": "[25]", "value": 96, "unit": "%"}, {"measurement": "Percent Control", "setting": "[26]", "value": 68, "unit": "%"}, {"measurement": "Percent Control", "setting": "[27]", "value": 89, "unit": "%"}, {"measurement": "Percent Control", "setting": "[28]", "value": 100, "unit": "%"}, {"measurement": "Percent Control", "setting": "[29]", "value": 69, "unit": "%"}, {"measurement": "Percent Control", "setting": "[30]", "value": 99, "unit": "%"}, {"measurement": "Percent Control", "setting": "[31]", "value": 93, "unit": "%"}, {"measurement": "Percent Control", "setting": "[32]", "value": 40, "unit": "%"}, {"measurement": "Percent Control", "setting": "[33]", "value": 62, "unit": "%"}, {"measurement": "Percent Control", "setting": "[34]", "value": 71, "unit": "%"}, {"measurement": "Percent Control", "setting": "[35]", "value": 86, "unit": "%"}, {"measurement": "Percent Control", "setting": "[36]", "value": 95, "unit": "%"}]}
